Like-named read-outs stand apart in the source and are kept apart here.
How the values were obtained:
[1] = test system: human iPSC-derived microglia (hiPSC-MG); assay: hiPSC-MG survival (Presto-Blue viability); assay type: cell-based; details: 48 h treatment; for hiPSC-MG survival: FIG. 7B
[2] = Plasma protein binding study; assay type: in vitro ADME; details: mouse plasma, equilibrium dialysis 4 hours; read-out: PPB-mouse (Bound) (%) (converted)
Protocol: On the day of experiment, the plasma was thawed under running cold tap water and centrifuged at 3220×g for 5 min to remove any clots. The pH value was checked and recorded. Only plasma within range of pH 7.0 to pH 8.0 was used. Pretreat the dialysis membrane according to the manufacturer's instructions: the dialysis membrane strips were soaked in ultra pure water at room temperature for approximately 1 hr. After that, each membrane strip that contains 2 membranes was separated and soaked in ethanol:water (20:80 v:v) for approximately 20 min, after which it was ready for use or was stored in the solution at 2-8° C. for up to 1 month. Prior to the experiment, the membrane was rinsed and soaked for 20 min in ultra pure water for use. Working solutions (400 μM) of test compound and control compound were prepared. Aliquots of working solutions (3 μL) were spiked into blank matrix (597 μL) to achieve final concentrations and mixed thoroughly. Aliquots of 50 μL loading matrix containing test compound or control compound in triplicate was transferred to Sample Collection Plate, respectively. The samples were matched with opposite blank buffer to obtain a final volume of 100 μL with a volume ratio of matrix:Dialysis Buffer (1:1, v:v) in each well immediately. The stop solution was added to these T0 samples of test compound and control compound. The plate was sealed and shaked at 800 rpm for 10 min. Then these T0 samples were stored at 2-8° C. pending further process along with other post-dialysis samples. The dialysis instrument was assembled following manufacture's instructions. An aliquot of 100 μL of the loading matrix containing test compound or control compound was transferred to the donor side of each dialysis well in triplicate and 100 μL of the Dialysis Buffer was loaded to the receiver side of the well. Then the plate was rotated at approximately 100 rpm in a humidified incubator with 5% CO2 at 37±1° C. for 4 hours. At the end of the dialysis, aliquots of 50 μL samples from the buffer side and matrix side of the dialysis device were taken into new 96-well plates (Sample Collection Plates). An equal volume of opposite blank matrix (buffer or matrix) in each sample was added to reach a final volume of 100 μL with volume ratio of matrix:Dialysis Buffer at 1:1 (v:v) in each well. All samples were further processed by protein precipitation for LC/MS/MS analysis.

EOC2 cell = assay: Cell proliferation assay, EOC2; assay type: cell-based, mouse; details: Mus musculus, 72 h
FLT3 = FLT3 (Homo sapiens (Human), UniProt P36888); assay: Biochemical HTRF kinase assay, FLT3; details: for IC50: recombinant human protein; for FLT3 Fold: selectivity: IC50 of FLT3 as multiple of IC50 of CSF-1R
[3] = In vivo PK study (plasma and brain exposure); set-up: species or system CD1 mouse; details: for Kp uu / half-life / AUC(0-t) / AUC(0-inf) / clearance / Vd / bioavailability / Cmax / Tmax: male; for Kp uu: CD1, brain, BBB penetration; for half-life: CD1, mouse; for clearance: read-out: IV-2mpk CL (converted); for Vd: read-out: IV-2mpk VSS; for bioavailability: p.o. 45 mg/kg vs i.v. 2 mg/kg; for Cmax: read-out: PO-45mpk Cmax; for Tmax: read-out: PO-45mpk Tmax
Protocol: The PK profiles were determined in CD1 mouse, and all the procedures and protocols were in accordance with the National Institutes of Health Guide for the Care and Use of Laboratory Animals. The CD1 mouse were purchased from JH Laboratory Animal Co. LTD. The CD1 mouse (23-30 g, 6-8 weeks, male) were randomized and divided into five groups consisting of 21 mouse per group. The test compounds that have been formulated were subjected to PK studies. The test compounds were administrated via p.o. at 45 mg/kg and i.v. at 2 mg/kg. […] The blood samples were placed on wet ice, and serum was collected after centrifugation. Serum samples were frozen and stored at −70° C. The brain samples were dried on filtrate paper, and snap frozen on dry ice and further stored at −70° C. Then, the blood samples and brain samples were further analyzed by LC-MS/MS (Triple Quad 6500+).

primary rat microglia = assay: Primary rat microglia survival; assay type: cell-based; details: 3 days of exposure, Iba1 staining
Source text: To assess the potency of CSF1R inhibitors disclosed herein we isolated and expanded primary brain glia from rat cortices in-vitro. This glial culture is about 20% microglia that is supported mostly by astrocytes that make up the rest of the population. The brain glia was exposed to CSF1R inhibitors for 3 days followed by paraformaldehyde fixation and immunofluorescence staining for the microglia marker, Iba1. The glial was imaged using a high-content-imager and the changes in microglia content were quantified. Using GraphPad Prism, a four-parameter logistic regression was applied to determine the potency of the CSF1R inhibitors.

c-Kit = c-Kit (Homo sapiens (Human), UniProt P10721); assay: Biochemical HTRF kinase assay, c-Kit; details: for IC50: recombinant human protein, read-out: cKit IC50; for cKit Fold: selectivity: IC50 of cKit as multiple of IC50 of CSF-1R;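 for all read-outs here: enzyme reaction with substrate and ATP run in 384-well plates for 1 hour at room temperature, kinase activity detected by HTRF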
CSF-1R = CSF-1R (Homo sapiens (Human), UniProt P07333); assay: Biochemical HTRF kinase assay, CSF-1R; details: recombinant human CSF-1R;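 note: enzyme incubated with inhibitor plus a substrate and ATP mix for one hour at room temperature before HTRF detection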
PDGFRβ = PDGFRβ (Homo sapiens (Human), UniProt P09619); assay: Biochemical HTRF kinase assay, PDGFRβ; details: for IC50: recombinant human protein, read-out: PDGFR-1β IC50; for PDGFR-1β Fold: selectivity: IC50 of PDGFR-1β as multiple of IC50 of CSF-1R;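 for all read-outs here: kinase reaction with substrate/ATP mix run 1 h at room temperature in 384-well format, HTRF signal detection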
[4] = EOC2 cells, 72 hours treatment, read-out: ECO2 EC50
[5] = serum, iv, 2 mg/kg, CD1 mouse, i.v. 2 mg/kg, read-out: IV-2mpk T1/2 (converted)
[6] = serum, po, 45 mg/kg, CD1 mouse, p.o. 45 mg/kg, read-out: PO-45mpk T1/2 (converted)
[7] = CD1, po, mouse, p.o. 45 mg/kg, brain, read-out: PO-45mpk AUClast-brain
[8] = CD1, po, mouse, p.o. 45 mg/kg, plasma, Tables 7 and 8, read-out: PO-45mpk AUClast-plasma
[9] = serum, iv, CD1 mouse, i.v. 2 mg/kg, read-out: IV-2mpk AUCInf
[10] = serum, iv, CD1 mouse, i.v. 2 mg/kg, read-out: IV-2mpk AUClast
[11] = serum, iv, CD1 mouse, i.v. 2 mg/kg
[12] = serum, po, CD1 mouse, p.o. 45 mg/kg, Tables 5 and 6, read-out: PO-45mpk AUClast
[13] = serum, po, CD1 mouse, p.o. 45 mg/kg, read-out: PO-45mpk AUCInf
[14] = serum, po, CD1 mouse, p.o. 45 mg/kg

Chain of FLT3 (P36888 27-993): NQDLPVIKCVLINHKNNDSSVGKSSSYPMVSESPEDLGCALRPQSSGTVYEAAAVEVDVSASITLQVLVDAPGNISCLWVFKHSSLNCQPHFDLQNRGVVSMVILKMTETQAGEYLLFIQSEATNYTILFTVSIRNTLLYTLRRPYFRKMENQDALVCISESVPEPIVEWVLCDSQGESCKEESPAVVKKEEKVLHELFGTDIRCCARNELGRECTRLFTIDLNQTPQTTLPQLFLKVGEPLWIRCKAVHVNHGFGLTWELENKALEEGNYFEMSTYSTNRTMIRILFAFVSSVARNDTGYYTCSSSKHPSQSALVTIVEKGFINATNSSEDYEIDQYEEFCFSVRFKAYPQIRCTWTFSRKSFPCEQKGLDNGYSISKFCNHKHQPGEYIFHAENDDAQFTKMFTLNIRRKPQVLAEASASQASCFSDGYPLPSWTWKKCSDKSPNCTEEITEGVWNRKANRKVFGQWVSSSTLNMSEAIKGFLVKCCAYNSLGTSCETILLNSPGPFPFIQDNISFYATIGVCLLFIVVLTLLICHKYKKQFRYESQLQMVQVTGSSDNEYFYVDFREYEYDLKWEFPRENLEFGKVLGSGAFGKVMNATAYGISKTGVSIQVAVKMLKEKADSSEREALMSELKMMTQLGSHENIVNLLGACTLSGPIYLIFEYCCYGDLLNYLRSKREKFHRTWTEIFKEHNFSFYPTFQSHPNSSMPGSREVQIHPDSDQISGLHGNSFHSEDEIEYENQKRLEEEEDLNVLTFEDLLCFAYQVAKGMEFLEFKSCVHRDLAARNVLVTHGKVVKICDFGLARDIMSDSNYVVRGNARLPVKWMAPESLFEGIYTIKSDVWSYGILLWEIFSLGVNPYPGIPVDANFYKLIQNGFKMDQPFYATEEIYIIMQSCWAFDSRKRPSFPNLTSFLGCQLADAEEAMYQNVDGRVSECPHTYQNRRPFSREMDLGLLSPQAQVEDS
Chain of PDGFRβ (P09619 33-1106): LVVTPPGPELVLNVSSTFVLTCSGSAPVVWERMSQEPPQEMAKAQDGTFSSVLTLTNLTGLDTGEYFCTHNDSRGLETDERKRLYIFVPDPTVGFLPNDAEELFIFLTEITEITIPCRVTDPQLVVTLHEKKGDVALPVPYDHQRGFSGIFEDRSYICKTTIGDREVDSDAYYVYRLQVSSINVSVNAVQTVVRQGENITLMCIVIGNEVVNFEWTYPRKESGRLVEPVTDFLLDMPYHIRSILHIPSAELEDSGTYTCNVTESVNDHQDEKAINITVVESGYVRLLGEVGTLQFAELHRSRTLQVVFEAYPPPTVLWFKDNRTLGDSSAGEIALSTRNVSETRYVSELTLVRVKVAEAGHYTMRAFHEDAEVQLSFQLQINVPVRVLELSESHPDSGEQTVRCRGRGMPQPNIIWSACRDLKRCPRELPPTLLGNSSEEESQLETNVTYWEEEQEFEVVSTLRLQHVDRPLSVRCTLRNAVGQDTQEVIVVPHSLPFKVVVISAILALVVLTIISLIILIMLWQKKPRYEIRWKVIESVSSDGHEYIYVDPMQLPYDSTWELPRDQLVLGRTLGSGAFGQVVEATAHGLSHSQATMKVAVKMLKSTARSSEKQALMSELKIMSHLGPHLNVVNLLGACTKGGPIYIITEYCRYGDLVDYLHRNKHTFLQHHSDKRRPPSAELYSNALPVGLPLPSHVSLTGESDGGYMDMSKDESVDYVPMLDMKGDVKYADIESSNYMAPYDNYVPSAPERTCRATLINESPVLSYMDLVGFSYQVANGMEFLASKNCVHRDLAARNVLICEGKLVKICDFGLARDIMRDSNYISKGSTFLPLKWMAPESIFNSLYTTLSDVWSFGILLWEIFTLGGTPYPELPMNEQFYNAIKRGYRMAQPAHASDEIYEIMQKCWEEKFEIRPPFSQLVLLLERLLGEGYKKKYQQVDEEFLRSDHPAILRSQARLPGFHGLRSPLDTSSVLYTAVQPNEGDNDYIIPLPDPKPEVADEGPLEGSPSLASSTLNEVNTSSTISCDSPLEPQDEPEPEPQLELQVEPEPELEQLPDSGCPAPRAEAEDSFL
Chain of CSF-1R (P07333 20-972): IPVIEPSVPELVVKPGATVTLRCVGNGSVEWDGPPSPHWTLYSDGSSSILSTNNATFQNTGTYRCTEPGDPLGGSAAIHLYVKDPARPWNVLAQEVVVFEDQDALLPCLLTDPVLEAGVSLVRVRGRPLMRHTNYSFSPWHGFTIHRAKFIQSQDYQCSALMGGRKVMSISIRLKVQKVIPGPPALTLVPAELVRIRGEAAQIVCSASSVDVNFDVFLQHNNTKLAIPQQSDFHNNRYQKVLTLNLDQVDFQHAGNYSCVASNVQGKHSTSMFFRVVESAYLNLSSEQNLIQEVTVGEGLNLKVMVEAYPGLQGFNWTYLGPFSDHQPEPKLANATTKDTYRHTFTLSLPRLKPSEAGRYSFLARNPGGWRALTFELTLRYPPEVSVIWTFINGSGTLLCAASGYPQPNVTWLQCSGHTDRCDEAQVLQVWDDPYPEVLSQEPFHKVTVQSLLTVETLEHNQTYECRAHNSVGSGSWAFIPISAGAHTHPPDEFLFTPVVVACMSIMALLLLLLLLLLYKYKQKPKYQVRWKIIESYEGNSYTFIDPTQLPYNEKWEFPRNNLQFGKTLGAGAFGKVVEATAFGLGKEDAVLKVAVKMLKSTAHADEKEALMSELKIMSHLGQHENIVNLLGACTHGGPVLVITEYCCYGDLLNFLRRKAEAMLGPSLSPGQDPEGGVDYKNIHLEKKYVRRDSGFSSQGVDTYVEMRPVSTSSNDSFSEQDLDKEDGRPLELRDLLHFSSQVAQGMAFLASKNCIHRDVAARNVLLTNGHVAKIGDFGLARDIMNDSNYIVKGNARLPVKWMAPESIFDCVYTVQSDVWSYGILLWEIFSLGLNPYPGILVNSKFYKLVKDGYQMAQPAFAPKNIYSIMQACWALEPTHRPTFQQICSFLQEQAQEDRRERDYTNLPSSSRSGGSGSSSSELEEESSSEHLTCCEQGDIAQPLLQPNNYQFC
Chain of c-Kit (P10721 26-976): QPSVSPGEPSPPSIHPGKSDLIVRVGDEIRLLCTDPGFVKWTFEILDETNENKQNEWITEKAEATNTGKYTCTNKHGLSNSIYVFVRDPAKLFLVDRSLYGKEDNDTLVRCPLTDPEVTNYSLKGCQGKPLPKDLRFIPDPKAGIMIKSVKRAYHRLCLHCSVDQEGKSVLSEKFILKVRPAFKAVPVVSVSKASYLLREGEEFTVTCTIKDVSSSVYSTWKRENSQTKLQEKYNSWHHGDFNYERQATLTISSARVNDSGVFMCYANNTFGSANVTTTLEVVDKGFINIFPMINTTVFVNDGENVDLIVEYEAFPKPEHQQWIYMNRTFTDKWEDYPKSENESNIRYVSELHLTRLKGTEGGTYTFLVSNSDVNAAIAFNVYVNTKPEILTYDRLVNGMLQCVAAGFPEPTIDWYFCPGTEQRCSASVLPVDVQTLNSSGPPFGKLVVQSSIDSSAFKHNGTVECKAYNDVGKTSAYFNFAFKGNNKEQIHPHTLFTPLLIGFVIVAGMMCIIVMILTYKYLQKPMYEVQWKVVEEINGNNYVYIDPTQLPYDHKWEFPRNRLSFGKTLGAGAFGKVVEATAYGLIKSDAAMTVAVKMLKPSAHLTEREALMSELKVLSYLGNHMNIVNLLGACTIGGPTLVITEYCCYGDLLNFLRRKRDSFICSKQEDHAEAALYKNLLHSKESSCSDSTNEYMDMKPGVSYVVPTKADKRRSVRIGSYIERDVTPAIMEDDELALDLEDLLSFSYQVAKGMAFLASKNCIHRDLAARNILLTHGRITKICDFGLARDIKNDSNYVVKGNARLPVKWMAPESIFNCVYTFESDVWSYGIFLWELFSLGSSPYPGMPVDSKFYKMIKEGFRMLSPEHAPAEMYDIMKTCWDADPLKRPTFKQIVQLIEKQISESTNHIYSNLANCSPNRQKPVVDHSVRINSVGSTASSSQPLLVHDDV

| Compound | fraction unbound at 4 h, 2 µM [2] | Kp uu ([3]; po, mouse, p.o. 45 mg/kg) | half-life [3, 5] [h] | half-life [3, 6] [h] | AUC(0-t) [3, 7] [ng·h/mL] | AUC(0-t) [3, 8] [ng·h/mL] | AUC(0-inf) [3, 9] [ng·h/mL] | AUC(0-t) [3, 10] [ng·h/mL] | clearance [3, 11] [mL/min/kg] | Vd [3, 11] [L/kg] | bioavailability ([3]; serum, po, CD1 mouse) [%] | AUC(0-t) [3, 12] [ng·h/mL] | AUC(0-inf) [3, 13] [ng·h/mL] | Cmax [3, 14] [ng/mL] | Tmax [3, 14] [h] | primary rat microglia survival (primary rat microglia) | IC50 (CSF-1R; Table 2) [nM] | IC50 (CSF-1R; Table 3) [nM] | IC50 (PDGFRβ) [nM] | PDGFR-1β Fold (PDGFRβ) [fold] | also measured |
| --- | --- | --- | --- | --- | --- | --- | --- | --- | --- | --- | --- | --- | --- | --- | --- | --- | --- | --- | --- | --- | --- |
| COc1ccc(COc2ncc(Cc3ccnc4cc(OC)cnc34)cc2OC)nc1 [Example 16, 3-methoxy-8-((5-methoxy-6-((5-methoxypyridin-2-yl)methoxy)pyridin-3-yl)methyl)-1,5-naphthyridine] | 0.0063 | 1.1 | 2.52 | 1.9 | 76800 | 210000 | 4460 | 4460 | 7.47 | 0.955 | 215 | 216000 | 216000 | 31400 | 1 | dose-dependent inhibition of primary rat microglia survival | 2.1 | 2.1 | > 1000 | >100 | hiPSC-MG survival IC50 compared with BLZ945 [1]: lower than that of BLZ945; IC50 ([1]; Homo sapiens, Microglia): 31.5 nM; EC50 (EOC2 cell; [4]): 39.2 nM; IC50 (FLT3): > 1000 nM; FLT3 Fold (FLT3): >100 fold; IV-2mpk CL ([3]; CD1 mouse, i.v. 2 mg/kg): 7.47 mL/min/kg; IV-2mpk T1/2 ([3]; CD1 mouse, i.v. 2 mg/kg): 2.52 h; IC50 (c-Kit): 881 nM; cKit Fold (c-Kit): >100 fold |
| COc1cnc2c(Cc3cnc(OCc4cc5n(n4)CCOC5)c(OC)c3)ccnc2c1 [Example 73, 2-(((3-methoxy-5-((7-methoxy-1,5-naphthyridin-4-yl)methyl)pyridin-2-yl)oxy)methyl)-6,7-dihydro-4H-pyrazolo[5,1-c][1,4]oxazine] | 0.01 | 0.67 | 2.52 | 1.57 | 31800 | 214000 | 9090 | 9090 | 3.67 | 0.461 | 98.8 | 202000 | 202000 | 100000 | 0.5 | dose-dependent inhibition of primary rat microglia survival | 3.3 | 3.3 | > 1000 | >100 | hiPSC-MG survival IC50 compared with BLZ945 [1]: lower than that of BLZ945; hiPSC-MG survival [1]: dose-dependent inhibition of hiPSC-MG survival; EC50 (EOC2 cell; read-out: ECO2 EC50 (nM)): 47.5 nM; IC50 (FLT3): > 1000 nM; FLT3 Fold (FLT3): >100 fold; IV-2mpk T1/2 ([3]; CD1 mouse, i.v. 2 mg/kg): 2.56 h; IC50 (c-Kit): > 1000 nM; cKit Fold (c-Kit): >100 fold |
| COc1ccc(COc2ncc(Cc3ccnc4cc(N5CCN(C)CC5)cnc34)cc2OC)nc1 [Example 116] | 0.042 | 0.99 | 6.42 | 4.87 | 4250 | 4620 | 578 | 566 | 57.7 | 9.54 | 42.1 | 5370 | 5480 | 2310 | 0.25 | – | 3 | 3 | > 1000 | >100 | EC50 (EOC2 cell; [4]): 10 nM; IC50 (FLT3): > 1000 nM; FLT3 Fold (FLT3): >100 fold; IC50 (c-Kit): > 1000 nM; cKit Fold (c-Kit): >100 fold |
| COc1ccc(COc2ncc(Cc3ccnc4cc(-c5ccn(C)n5)cnc34)cc2OC)nc1 [Example 134, 8-((5-methoxy-6-((5-methoxypyridin-2-yl)methoxy)pyridin-3-yl)methyl)-3-(1-methyl-1H-pyrazol-3-yl)-1,5-naphthyridine] | 0.008 | 0.75 | 1.39 | 1.86 | 44400 | 88400 | 1890 | 1860 | 17.7 | 1.45 | 227 | 96400 | 96500 | 18100 | 0.5 | dose-dependent inhibition of primary rat microglia survival | 6.6 | 6.6 | 394 | 59.7 | hiPSC-MG survival IC50 compared with BLZ945 [1]: lower than that of BLZ945; hiPSC-MG survival [1]: dose-dependent inhibition of hiPSC-MG survival; EC50 (EOC2 cell; [4]): 5.5 nM |
| COc1cnc2c(Cc3cnc(OCc4cc5n(n4)C[C@H](OC)C5)c(OC)c3)ccnc2c1 [Example 136, (R)-3-methoxy-8-((5-methoxy-6-((5-methoxy-5,6-dihydro-4H-pyrrolo[1,2-b]pyrazol-2-yl)methoxy)pyridin-3-yl)methyl)-1,5-naphthyridine] | 0.005 | 0.94 | 0.777 | – | 16200 | 93200 | 4940 | 4940 | 6.75 | 0.274 | 77.1 | 85700 | – | 51200 | 0.5 | dose-dependent inhibition of primary rat microglia survival | 5 | 5 | > 1000 | >100 | hiPSC-MG survival [1]: dose-dependent inhibition of hiPSC-MG survival; EC50 (EOC2 cell; read-out: ECO2 EC50 (nM)): 94.8 nM; IC50 (c-Kit): > 1000 nM; cKit Fold (c-Kit): >100 fold |

Reference: patent publication US20250360145A1, “CSF-1R INHIBITORS AND USES THEREOF” (Myrobalan Therapeutics, Inc., priority 2022, published 2025)
